Reference: the supplement of paper PMC10307832

Legend:
Test in all cases: relative viability (nuclei count vs DMSO), 5 days (fraction); higher = more cells survive
[1] = compound: C1/C(=C\C2=CC=CS2)/C(=O)/C(=C/C3=CC=CS3)/C1 + COc1cc2c(Oc3ccc(NC(=O)C4(C(=O)Nc5ccc(F)cc5)CC4)cc3F)ccnc2cc1OCCCN1CCOCC1 [Foretinib] (partner 0.25 µM)
How it was run: (§1)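 Values are medians from duplicate plates. Each reflects relative viability, defined as the nuclei count of treated wells over that of vehicle wells. Lung cancer cell lines in 1536-well plates were pin-tool dosed one day after seeding with one drug alone or with a fixed anchor-drug dose plus five library-drug doses (not always all listed) in √10 steps, then fixed, stained and imaged at 4× after 5 days.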

TPCA-1 + Pemetrexed = compound: C1=CC(=CC=C1C2=CC(=C(S2)NC(=O)N)C(=O)N)F [TPCA-1] + Nc1nc2[nH]cc(CCc3ccc(C(=O)N[C@@H](CCC(=O)O)C(=O)O)cc3)c2c(=O)[nH]1 [Pemetrexed] (partner 0.2 µM)
How it was run: as §1

[2] = compound: C[C@]12O[C@H](C[C@]1(O)CO)n1c3ccccc3c3c4c(c5c6ccccc6n2c5c31)CNC4=O [Lestaurtinib] + Cc1cc(Nc2cc(N3CCN(C)CC3)nc(Sc3ccc(NC(=O)C4CC4)cc3)n2)n[nH]1 [Tozasertib] (partner 0.1 µM)
How it was run: as §1

[3] = compound: C[C@]12O[C@H](C[C@]1(O)CO)n1c3ccccc3c3c4c(c5c6ccccc6n2c5c31)CNC4=O [Lestaurtinib] + Nc1ncn([C@H]2C[C@H](O)[C@@H](CO)O2)c(=O)n1 [Decitabine] (partner 2 µM)
How it was run: as §1

Cell Line | relative viability ([1]; first compound 0.2 µM) | relative viability ([1]; first compound 0.6325 µM) | relative viability ([1]; first compound 2 µM) | relative viability ([1]; first compound 6.325 µM) | relative viability ([1]; first compound 20 µM) | relative viability (TPCA-1 + Pemetrexed; first compound 0.04 µM) | relative viability (TPCA-1 + Pemetrexed; first compound 0.1265 µM) | relative viability (TPCA-1 + Pemetrexed; first compound 0.4 µM) | relative viability (TPCA-1 + Pemetrexed; first compound 1.265 µM) | relative viability (TPCA-1 + Pemetrexed; first compound 4 µM) | relative viability ([2]; first compound 0.005 µM) | relative viability ([2]; first compound 0.01581 µM) | relative viability ([2]; first compound 0.05 µM) | relative viability ([2]; first compound 0.1581 µM) | relative viability ([2]; first compound 0.5 µM) | relative viability ([3]; first compound 0.005 µM) | relative viability ([3]; first compound 0.01581 µM) | relative viability ([3]; first compound 0.05 µM) | relative viability ([3]; first compound 0.1581 µM) | relative viability ([3]; first compound 0.5 µM)
LCLC-103H | 0.804 | 0.8 | 0.787 | 0.668 | 0.732 | 0.522 | 0.426 | 0.464 | 0.398 | 0.432 | 0.526 | 0.595 | 0.384 | 0.424 | 0.209 | 0.783 | 0.79 | 0.687 | 0.534 | 0.703
LK-2 | 1.57 | 1.51 | 1.11 | 1.18 | 1.41 | 0.268 | – | 0.253 | 0.232 | 0.141 | 0.161 | 0.183 | 0.165 | 0.17 | 0.164 | 0.281 | 0.462 | 0.239 | 0.224 | 0.145
SW 1573 | 0.879 | 0.965 | 0.939 | 0.843 | 0.825 | 0.792 | 0.823 | 0.844 | 0.924 | 0.715 | 0.146 | 0.172 | 0.142 | 0.1 | 0.116 | 0.562 | 0.601 | 0.45 | 0.352 | 0.103
NCI-H2405 | 1.11 | 1.03 | 1.17 | 0.948 | 1.12 | 1.09 | 1.03 | 1.02 | 1.02 | 0.914 | 0.797 | 0.814 | 0.78 | 0.511 | 0.271 | 0.728 | 0.77 | 0.742 | 0.638 | 0.413
NCI-H2087 | 1.26 | 1.28 | 1.15 | 1.17 | 1.13 | 0.615 | 0.472 | 0.646 | 0.651 | 0.539 | 0.321 | 0.378 | 0.208 | 0.265 | 0.212 | 0.289 | 0.338 | 0.258 | 0.207 | 0.206
NCI-H460 | 1.02 | 1.06 | 1.02 | 0.881 | 0.99 | 0.0613 | 0.0689 | – | 0.0518 | 0.0585 | 0.519 | 0.478 | 0.524 | 0.986 | 0.303 | 0.639 | 0.519 | 0.499 | 0.548 | 0.305
LOU-NH91 | 0.953 | 0.921 | 0.919 | 0.827 | 0.944 | 0.399 | 0.376 | 0.389 | 0.392 | 0.532 | 0.61 | 0.602 | 0.628 | 0.496 | 0.295 | 0.818 | 0.816 | 0.804 | 0.679 | 0.659
NCI-H1651 | 0.797 | 0.815 | 0.785 | 0.671 | 0.692 | 0.601 | 0.538 | 0.532 | 0.527 | 0.338 | 0.706 | 0.756 | 0.771 | 0.694 | 0.492 | 0.63 | 0.775 | 0.59 | 0.653 | 0.406
NCI-H441 | 1.11 | 0.913 | 1.15 | 0.867 | 0.927 | 0.247 | 0.257 | 0.258 | 0.24 | 0.242 | 0.711 | 0.719 | 0.537 | 0.651 | 0.442 | 0.255 | 0.124 | 0.233 | 0.247 | 0.253
